Test results taken from US4775692A, “2,5,6,7-tetranor-4,8-inter-m-phenylene PGI2 derivatives” (Toray Industries, Inc., priority 1986, dated 1988).
Values after ≈ are worked out from the molar mass of the structure shown. Where two headings read alike, the source gives them in different places.

Columns and labels:
corpus of stomach = experiment: Gastric cytoprotection effect (lesion length / ulcer index after oral 0.2N NaOH); format: in vivo; settings: 1 h, 30 min before oral 0.2N NaOH, lesion measured one hour later, read-out: Gastric cytoprotection effect ED50 (dose reducing the sore to 50% of control)
Excerpt: Gastric cytoprotection effect
Gastric cytoprotection effect was studied according to the method by A. Robert (Gastroenterology, 77(3), 443, (1979)). Thirty min. after oral administration of the compound according to the invention, 0.2N NaOH was orally applied to the animals.
One hour later, the animals were killed under anesthesia by chloroform. The stomach was removed and fixed in a solution of 5% formalin. After fixation, the stomach was cut along the greater curvature. A total length of the lesion appearing on the corpus of stomach was then measured and served as an ulcer index.
The dose of the compound which may reduce the sore to 50% of that of the control was designated as ED50.
The gastric cytoprotection effects of the compounds according to the invention, which is thus represented by ED50, are summarized in Table 1.

gastric acid secretion [1] = experiment: Inhibiting effect of gastric acid secretion, pylorus-ligated rat (Shay); format: in vivo; settings: pylorus ligation, injected into duodenum, 5 hours
Protocol: (§1) Inhibiting effect of gastric acid secretion
Under anesthesia by ether, the abdomen of the rat was incised in its median and a pylorus was ligated with silk thread according to Shay (Gastroenterology 5, 43 (1945)). Simultaneously, the compound was injected into a duodenum of the rat and then the incision was closed.
Five hours later, the median-incision of the abdomen was again performed and the esophargus was ligated and then the whole stomach was removed.
The stomach was cut along a greater curvature and the contents thereof was transferred into a graduated centrifuge tube. After centrifugation at 3,000 rpm for 10 min., a volume of a gastric juice was measured and a part of its supernatant was titrated to pH 7 with 0.1N NaOH using a pH-stat (Radio meter).
The mean dose of the compounds which may reduce the volume of gastric juice (ml) and acidity (mEq/ml) of a group of five animals to 50% of that of the controls were designated respectively as ED50.

gastric acid secretion [2] = experiment: Inhibiting effect of gastric acid secretion, perfused stomach, pentagastrin-stimulated (Ghosh & Schild); format: in vivo, male SD rat; settings: urethane-anesthetized SD rat, pentagastrin 0.05 μg/kg/min, injected through femoral vein; ratio of area index to that of PGE2
Protocol: as §1
A male SD rat was incised in the abdomen under anesthesia by urethane and the lumen of a stomach was perfused with a physiolosical saline solution through a double-cannula inserted into a lumen of the stomach. A pH of a draining gastric acid was monitored using a pH-meter (M. Ghosh, H. Schild, Br. J. Pharmacol. 13, 54 (1958)). The secretion of gastric acid was stimulated by a continuous infusion of the pentagastrin at a rate of 0.05 μg/kg/min. When the pH of gastric acid became stable value of about 4, the compound was injected through a femoral vein. As an index of the inhibiting effect of gastric acid secretion by the compound was calculated from the area surrounded by the curve drawn by the time course of the pH of gastric acid, from the point increase by the injection of the compound and to the point it came back to baseline. The index thus obtained was compared to that of PGE2 and a ratio therebetween was shown in Table 3, as a relative effect of the compound.

platelet aggregation [3] = experiment: Inhibiting effect of platelet aggregation (ADP-induced, human platelet-rich plasma); format: cell-based; settings: human PRP, compound added one minute before ADP
Protocol: Inhibiting effect of platelet aggregation
The blood taken from a human median cubital vein was centrifuged at 800 rpm for 10 min. and a supernatant thereof was used as a platelet-rich plasma (PRP). An aliquot of PRP thus obtained was put into a small tube, to which […] (ADP) was added to induce platelet aggregation. The extent of aggregation was determined by detecting a change in turbidity of the aliquot by an apparatus for measuring platelet aggregation (Rika-Denki, Tokyo). The compound was added one minute before the addition of ADP. The concentration of the compound which may reduce the platelet aggregation, 50% of the control was designated as IC50.

[4] = tested on: blood pressure of the carotid; experiment: Hypotensive effect (carotid blood pressure, anesthetized rat); format: in vivo; settings: chloralose-anesthetized Wistar male rat, injected via catheter connected to femoral artery; read-out: Hypotensive effect ED25 (dose reducing blood pressure by 25 mmHg)
Protocol: A catheter was inserted to a carotid of the Wistar male rat under chloralose anesthesia. Another end of the catheter was connected to a polygraph with a pressure-transducer to detect a blood pressure of the carotid. The compound was injected via catheter connected to a femoral artery. The dose of the compound which may reduce the blood pressure in an amount of 25 mmHg was designated as ED25.

platelet aggregation [5] = settings: cited from earlier work
gastric acid secretion [6] = settings: cited from earlier work
peripheral blood vessel = settings: cited from earlier work
[7] = converted to 6-oxo PGF1α; cited from earlier work
[8] = cited from earlier work
[9] = acidity (mEq/ml) to 50% of controls, read-out: Inhibiting effect of gastric acid secretion ED50, Acidity
[10] = volume (ml) to 50% of controls, read-out: Inhibiting effect of gastric acid secretion ED50, Volume of the gastric juice

IC50 (platelet aggregation [3]) [ng/mL] | SMILES | ED50 (corpus of stomach) [µg/kg] | ED50 (gastric acid secretion [1]; [9]) [µg/kg] | ED50 (gastric acid secretion [1]; [10]) [µg/kg] | Inhibiting effect of gastric acid secretion, Relative effect (PGE2 = 1) (gastric acid secretion [2]) | ED (25 mmHg) [4] [µg/kg] | platelet aggregation-inhibiting activity (platelet aggregation [5]) | gastric acid secretion-inhibiting activity (gastric acid secretion [6]) | peripheral blood vessel-dilating activity (peripheral blood vessel) | stability in neutral aqueous solutions [7] | duration of physiological activities in vivo [8] | stability in vivo [8]
0.19 (≈ 0.507 nM) | O=C(O)COc1cccc2c1O[C@H]1C[C@@H](O)[C@H](/C=C/[C@@H](O)C3CCCC3)[C@@H]21 (relative stereo) [Compound 230, 15-cyclopentyl-2,5,6,7,16,17,18,19,20-nonanor-4-oxa-4,8-inter-m-phenylene PGI2] | 9.74 | 880 | 330 | 1.4 | 0.094 |  |  |  |  |  | 
0.26 (≈ 0.669 nM) | O=C(O)COc1cccc2c1O[C@H]1C[C@@H](O)[C@H](/C=C/[C@@H](O)C3CCCCC3)[C@@H]21 (relative stereo) [Compound 234, 15-cyclohexyl-2,5,6,7,16,17,18,19,20-nonanor-4-oxa-4,8-inter-m-phenylene PGI2] | 12.4 | 880 | 86 | 4.1 | 0.34 |  |  |  |  |  | 
12 (≈ 29.8 nM) | O=C(O)COc1cccc2c1O[C@H]1C[C@@H](O)[C@H](/C=C/[C@@H](O)CC3CCCCC3)[C@@H]21 (relative stereo) [Compound 241, 16-cyclohexyl-2,5,6,7,17,18,19,20-octanor-4-oxa-4,8-inter-m-phenylene PGI2] | 8.17 | 2800 | 1800 | 2.1 | 0.083 |  |  |  |  |  | 
28 (≈ 67.2 nM) | O=C(O)COc1cccc2c1O[C@H]1C[C@@H](O)[C@H](/C=C/[C@@H](O)CCC3CCCCC3)[C@@H]21 (relative stereo) [Compound 244, 17-cyclohexyl-2,5,6,7,18,19,20-heptanor-4-oxa-4,8-inter-m-phenylene PGI2] | 8.52 | > 10000 | 3500 | 3.9 | 0.47 |  |  |  |  |  | 
0.74 (≈ 1.78 nM) | O=C(O)COc1cccc2c1O[C@H]1C[C@@H](O)[C@H](/C=C/[C@@H](O)c3ccc(Cl)cc3)[C@@H]21 (relative stereo) [Compound 289, 15-(p-chlorophenyl)-2,5,6,7,16,17,18,19,20-nonanor-4-oxa-4,8-inter-m-phenylene PGI2] | 4 | 970 | 430 | 17 | 0.084 |  |  |  |  |  | 
0.33 (≈ 0.854 nM) | CC#CCC(C)[C@H](O)/C=C/[C@@H]1[C@H]2c3cccc(OCC(=O)O)c3O[C@H]2C[C@H]1O (relative stereo) [Compound 321, 16-Methyl-2,5,6,7-tetranor-4-oxa-18,18,19,19-tetradehydro-4,8-inter-m-phenylene PGI2] | 0.5 | 320 | 120 | 41 | 0.22 |  |  |  |  |  | 

Second part, the molecule before the results:

SMILES | IC50 (platelet aggregation [3]) [ng/mL] | ED50 (corpus of stomach) [µg/kg] | ED50 (gastric acid secretion [1]; [9]) [µg/kg] | ED50 (gastric acid secretion [1]; [10]) [µg/kg] | Inhibiting effect of gastric acid secretion, Relative effect (PGE2 = 1) (gastric acid secretion [2]) | ED (25 mmHg) [4] [µg/kg] | platelet aggregation-inhibiting activity (platelet aggregation [5]) | gastric acid secretion-inhibiting activity (gastric acid secretion [6]) | peripheral blood vessel-dilating activity (peripheral blood vessel) | stability in neutral aqueous solutions [7] | duration of physiological activities in vivo [8] | stability in vivo [8]
O=C(O)COc1cccc2c1O[C@H]1C[C@@H](O)[C@H](/C=C/[C@@H](O)c3ccccc3)[C@@H]21 (relative stereo) [Compound 256, 15-phenyl-2,5,6,7,16,17,18,19,20-nonanor-4-oxa-4,8-inter-m-phenylene PGI2] | 0.088 (≈ 0.23 nM) | 3.2 | 110 | 44 | 7.8 | 0.1 |  |  |  |  |  | 
O=C(O)COc1cccc2c1O[C@H]1C[C@@H](O)[C@H](/C=C/[C@@H](O)Cc3ccccc3)[C@@H]21 (relative stereo) [Compound 260, 16-phenyl-2,5,6,7,17,18,19,20-octanor-4-oxa-4,8-inter-m-phenylene PGI2] | 3.5 (≈ 8.83 nM) | 51.4 | 4500 | 5200 | 13 | 0.98 |  |  |  |  |  | 
O=C(O)COc1cccc2c1O[C@H]1C[C@@H](O)[C@H](/C=C/[C@@H](O)CCc3ccccc3)[C@@H]21 (relative stereo) [Compound 263, 17-phenyl-2,5,6,7,18,19,20-heptanor-4-oxa-4,8-inter-m-phenylene PGI2] | 3.4 (≈ 8.28 nM) | 13.7 | 1300 | 580 | 42 | 0.23 |  |  |  |  |  | 
O=C(O)COc1cccc2c1O[C@H]1C[C@@H](O)[C@H](/C=C/[C@@H](O)c3cccc(F)c3)[C@@H]21 (relative stereo) [Compound 274, 15-(m-fluorophenyl)-2,5,6,7,16,17,18,19,20-nonanor-4-oxa-4,8-inter-m-phenylene PGI2] | 1.35 (≈ 3.37 nM) | 9.6 | 880 | 260 | 12 | 0.053 |  |  |  |  |  | 
O=C(O)COc1cccc2c1O[C@H]1C[C@@H](O)[C@H](/C=C/[C@@H](O)c3cccc(C(F)(F)F)c3)[C@@H]21 (relative stereo) [Compound 278, 15-(m-trifluoromethylphenyl)-2,5,6,7,16,17,18,19,20-nonanor-4-oxa-4,8-inter-m-phenylene PGI2] | 0.79 (≈ 1.75 nM) | 3.1 | 1100 | 630 | 6.9 | 0.11 |  |  |  |  |  | 
O=C(O)COc1cccc2c1O[C@H]1C[C@@H](O)[C@H](/C=C/[C@@H](O)c3ccccc3Cl)[C@@H]21 (relative stereo) [Compound 281, 15-(o-chlorophenyl)-2,5,6,7,16,17,18,19,20-nonanor-4-oxa-4,8-inter-m-phenylene PGI2] | 0.82 (≈ 1.97 nM) | 2.4 | 500 | 460 | 10 | 0.14 |  |  |  |  |  | 
O=C(O)COc1cccc2c1O[C@H]1C[C@@H](O)[C@H](/C=C/[C@@H](O)c3cccc(Cl)c3)[C@@H]21 (relative stereo) [Compound 285, 15-(m-chlorophenyl)-2,5,6,7,16,17,18,19,20-nonanor-4-oxa-4,8-inter-m-phenylene PGI2] | 0.23 (≈ 0.552 nM) | 3.5 | 1200 | 880 | 4.1 | 0.055 |  |  |  |  |  | 
CCCOCC(C)(C)[C@H](O)/C=C/[C@@H]1[C@H]2c3cccc(OCC(=O)O)c3O[C@H]2C[C@H]1O (relative stereo) [Compound 309, 16,16-Dimethyl-20a-homo-2,5,6,7-tetranor-4,18-dioxa-4,8-inter-m-phenylene PGI2] | 72 (≈ 171 nM) | 7.47 | 2010 | 805 | 33 | 0.3 |  |  |  |  |  | 
CCCCC[C@H](O)/C=C/[C@@H]1[C@H]2C/C(=C/CCCC(=O)O)O[C@H]2C[C@H]1O [PGI2, Prostaglandin I2] |  |  |  |  |  |  | potent | potent | potent | extremely unstable | only short duration | unstable in vivo
